# According to US10463716B2 (UNIVERSITY OF MARYLAND, BALTIMORE, priority 2014, dated 2019):
# Assays:
# mouse aortic rings = experiment: Endothelium-dependent and -independent vasorelaxation of aortic rings; conditions: for decrease of relaxation by removal of endothelium: denuded vs endothelium-intact vessels
# Protocol: Aortas were isolated from 8-10 weeks male wild-type C57BL/6 mice, cut into 3-mm rings and mounted in organ chambers (PowerLab, AD Instruments, CO, USA) in Kreb's buffer as described previously (11, 12). The contractile response was elicited by vasoconstrictor U46619 (30 nM) to produce contraction. […] In some preparations, the endothelium was mechanically removed from denuded arteries by gentle rubbing off the intimal surface with a wooden stick.
# Apelin is reported to relax vascular tone (14) and lower blood pressure. […] The aortic rings were induced to contraction with vasoconstrictor U46619 (final concentration, 30 nM).
# To further determine whether nitric oxide (NO) participated in the relaxation, the blood vessels were pretreated with L-NAME, an NO production inhibitor. […] The effect of apelin-13 on blood vessels was studied in parallel for comparison.
# HUVECs = experiment: In vitro angiogenesis (tube formation) assay; format: cell-based, human
# Protocol: Tube formation assay for angiogenesis was conducted in 24-well plates were coated with 50 μl of Geltrex (Life Technologies, A14133-02) and left for polymerization by incubation for 1 hour at 37° C. […] Quantification of tube formation was performed after 10 hours of culture by calculating the number of branching point formed in each well under an inverted phase contrast photomicroscope (Olympus IX5O) as described^37.
# ELA is a secreted hormone and expressed in adult kidney and prostate, and may, therefore, circulate in blood. […] Vascular tube formation assay is a well-used in vitro study to assess angiogenic factors and conditions in which vascular cells, e.g., human umbilical […] endothelial cells (HUVECs), can form tube-like structures under proangiogenic conditions in culture wells coated with Geltrex containing extra-cellular matrix. The number of branch points was an indicator of the strength of angiogenic stimuli.
# [1] = mature ELA hormone; cited from earlier work
# C57/BL6 mice = experiment: Diuresis in anesthetized mice; format: in vivo, mouse; conditions: 200 nmol/kg intravenously, one hour collection vs baseline hour
# From the text: Four male C57/BL6 mice aged from 10 to 12 weeks were anesthetized with pentobarbital and then placed on a heated table to maintain body temperature and tracheotomized. Catheters were inserted into the external jugular veins for infusing normal saline to replace fluid loss and anesthesia, and into carotid artery for measuring blood pressure and heart rates. Urine was collected via a suprapubic cystostomy (PE-50-flanged end). After a 30-min stabilization period, urine was collected for a period of one hour as a baseline volume.
# [2] = test system: human pluripotent stem cells (PSCs); experiment: Cardiomyocyte differentiation from pluripotent stem cells; format: cell-based; conditions: data not shown
# From the text: The question of whether ELA-APJ promotes human pluripotent stem cells (PSCs) into mesoderm derivatives including mesenchymal stem cells, adipocytes and cardiomyocytes was studied. […] Without being bound by theory, the kidney is a crucial organ that maintains circulation homeostasis.
# APJ = experiment: qPCR of APJ mRNA in mice infused with ELA; format: in vivo, mouse
# [3] = test system: aldosterone synthase CYP11B2; experiment: Ang II-induced aldosterone synthase gene expression (qPCR) in HAC15 cells; format: cell-based, human; conditions: ELA 50 nM, Ang II 10 nM, 47 hours
# C57/BL mice = experiment: MI-induced heart failure by coronary artery ligation, echocardiography; format: in vivo, mouse
# Protocol: C57/BL wild type mice at age of 14-16 months old were used. Mice were subjected to either MI by permanent ligation or sham treatment with a loose suture of the proximal left anterior descending (LAD) coronary artery under general anesthesia by 2% isoflurane inhalation, and mechanical ventilation via oral intubation. Left thoracotomy in the 3-4 intercostal space was performed and the pericardium was opened to expose the LV and the LAD. The artery was circled a 8-0 silk suture, and then either ligated permanently or remained loose (sham).
# Twelve to 14 mice were used in each group.
# Data were calculated with the accepted formulae, which have been validated in mice.
# Coronary artery ligation (CAL) is a well-used procedure to create a mouse model of acute myocardial infarction (MI) and heart failure (HF). […] Echocardiography was conducted to access heart function before the procedure (baseline), and at 1 week and 5 weeks post-MI.
# human cardiomyocytes = experiment: Hypoxia-induced apoptosis (TUNEL) in cardiomyocytes from human pluripotent stem cells; format: cell-based; conditions: ELA 0.5 μM
# From the text: Cellular mechanisms of cardioprotection in MI include the less cell death due to necrosis and apopotosis, increased angiogenesis and reduced fibrosis. […] Apelin is reported to protect against glucose deprivation-induced apoptosis in rat neonatal cardiomyocytes and to increase Akt and mTOR phosphorylation.
# Sprague-Dawley rats = experiment: MI-induced heart failure by coronary artery ligation in rats, Fc-ELA-32; format: in vivo, rat
# Protocol: It was studied whether Fc-ELA fusion proteins have cardioprotective activities in heart failure caused by myocardial infarction (MI) in rats. MI was inflicted by standard left anterior descending coronary artery ligation (CAL) in Sprague-Dawley rats (8-weeks old, male). One week post-operation, recombined Fc-ELA-32 protein was administrated by subcutaneous injection at the dosage of 300 μg/kg bodyweight/day for two weeks. Phosphate-buffered saline (PBS) was used as the control. One week after the administration or at the end of the four weeks of MI, cardiac performance was evaluated by a pressure transducer which was inserted retrograde from the right carotid artery to the left ventricle cavity. Heart tissue samples were taken and fixed with 4% paraformaldehyde for 24 hours and then embedded in paraffin and sectioned for histopathologic examination.
# Apoptosis was assessed by terminal deoxynucleotidyl transferase-mediated dUTP nick end labeling (TUNEL) and caspase-3 activity assay. […] TUNEL-positive nuclei in the LV free wall were counted within a 4-mm^2 square of field. […]
# Masson staining which specifically stains collagens in blue was conducted on tissue sections of the infarcted heart area. Collagen volume fraction (CVF) is calculated by dividing of the blue stained area, which scattered between the surviving myocytes and around the blood vessels by the total area. […]
# [4] = test system: empty vector control CHO-K 1 cells; experiment: Parallel control experiments (cAMP, ERK, calcium) in empty vector cells; format: cell-based, Chinese hamster; conditions: cells transduced with empty vector control viruses
# From the text: Activation of APJ is known to result in a decrease of cAMP production, stimulation of ERK and increase in intercellular calcium mobilization (13). […] APJ-over-expressing and empty vector control CHO-K 1 cells were used in the studies. APJ expression was confirmed by RT-PCR. […] The response was dose-dependent up to the concentration of 10^−5M (FIG. 3C, lower panel).
# [5] = endothelium-intact vessels, contracted with U46619 30 nM
compound,measurement,setting,value
apelin-13 [reference compound],maximum relaxation,mouse aortic rings; denuded (endothelium removed) vessels,31%
same,decrease of relaxation by removal of endothelium,mouse aortic rings,48%
same,maximum relaxation,mouse aortic rings; [5],79%
"CSCC[C@H](NC(=O)[C@@H](NC(=O)[C@H](CC(C)C)NC(=O)[C@H](CC(N)=O)NC(=O)[C@@H](NC(=O)[C@@H]1CCCN1C(=O)[C@H](CCCNC(=N)N)NC(=O)[C@@H](N)CCC(N)=O)C(C)C)[C@@H](C)O)C(=O)N[C@@H](CCCNC(=N)N)C(=O)N[C@@H](CCCNC(=N)N)C(=O)N[C@@H](CCCCN)C(=O)N[C@@H](CC(C)C)C(=O)N[C@@H](CCCNC(=N)N)C(=O)N[C@@H](CCCCN)C(=O)N[C@@H](Cc1c[nH]cn1)C(=O)N[C@@H](CC(N)=O)C(=O)N[C@H]1CSSC[C@@H](C(=O)N[C@@H](CCSC)C(=O)N2CCC[C@H]2C(=O)N[C@@H](CC(C)C)C(=O)N[C@@H](Cc2c[nH]cn2)C(=O)N[C@@H](CO)C(=O)N[C@@H](CCCNC(=N)N)C(=O)N[C@H](C(=O)N2CCC[C@H]2C(=O)N[C@@H](Cc2ccccc2)C(=O)N2CCC[C@H]2C(=O)O)C(C)C)NC(=O)[C@H](CCCNC(=N)N)NC(=O)[C@H](CCCNC(=N)N)NC(=O)[C@H](CCC(N)=O)NC(=O)[C@H](CC(C)C)NC1=O [ELA, Elabela]",formation of tubular structures,HUVECs; APJ-knock down HUVECs,not effective
same,increase in number of branch points,HUVECs; ELA 0.1 μM,71.9%
same,increase in number of branch points,HUVECs; ELA 0.5 μM,222.8%
same,increase in number of branch points,HUVECs; ELA 1 μM,266.7%
same,isoelectric point,[1],exceeding 12
same,urine volume,C57/BL6 mice,increased by about one fold
same,cardiomyocyte differentiation from PSCs,[2],potent inducer of cardiomyocyte differentiation
same,APJ mRNA expression,APJ,tended to decrease
same,Ang II-induced gene expression of aldosterone synthase,[3],significantly suppressed
same,FS_LVD,"C57/BL mice; MI mice, ELA group, Baseline",29.65 ± 4.16%
same,FS_LVPW,"C57/BL mice; MI mice, ELA group, Baseline",30.36 ± 3.65%
same,IVSd,"C57/BL mice; MI mice, ELA group, Baseline",0.61 ± 0.05 mm
same,IVSs,"C57/BL mice; MI mice, ELA group, Baseline",0.99 ± 0.04 mm
same,LVDd,"C57/BL mice; MI mice, ELA group, Baseline",3.87 ± 0.20 mm
same,LVDs,"C57/BL mice; MI mice, ELA group, Baseline",2.68 ± 0.11 mm
same,LVEF,"C57/BL mice; MI mice, ELA group, Baseline",61.84 ± 7.39%
same,LVPWd,"C57/BL mice; MI mice, ELA group, Baseline",0.70 ± 0.03 mm
same,LVPWs,"C57/BL mice; MI mice, ELA group, Baseline",1.01 ± 0.04 mm
same,FS_LVD,"C57/BL mice; MI mice, ELA infusion, Week 5",22.68 ± 1.21 %
same,FS_LVPW,"C57/BL mice; MI mice, ELA infusion, Week 5",22.46 ± 4.49%
same,IVSd,"C57/BL mice; MI mice, ELA infusion, Week 5",0.73 ± 0.07 mm
same,IVSs,"C57/BL mice; MI mice, ELA infusion, Week 5",0.96 ± 0.11 mm
same,LVDd,"C57/BL mice; MI mice, ELA infusion, Week 5",4.48 ± 0.17 mm
same,LVDs,"C57/BL mice; MI mice, ELA infusion, Week 5",3.47 ± 0.16 mm
same,LVEF,"C57/BL mice; MI mice, ELA infusion, Week 5",45.65 ± 2.16 %
same,LVPWd,"C57/BL mice; MI mice, ELA infusion, Week 5",0.75 ± 0.05 mm
same,LVPWs,"C57/BL mice; MI mice, ELA infusion, Week 5",0.97 ± 0.04 mm
same,degree of left ventricular dilation and contractile dysfunction,"C57/BL mice; MI mice, ELA vs vehicle",significantly mitigated
same,mice died during the experimental period,"C57/BL mice; MI mice, one-month experimental period, control three of nine",one of eight
same,"heart performance in sham op animals, vehicle vs ELA",C57/BL mice; sham op mice,no statistical difference
same,number of TUNEL-stained cells,human cardiomyocytes,significantly reduced
same,TUNEL green-labeled apoptotic cells in heart sections,Sprague-Dawley rats,much less green-labeled cells
same,decrease of relaxation by removal of endothelium,mouse aortic rings,about 20%
same,maximum relaxation,mouse aortic rings; [5],73.7%
same,"relaxation, L-NAME-treated vs none-treated vessels",mouse aortic rings; pretreated with 1 mM L-NAME,No significant difference
same,"changes in cAMP, ERK ½ and calcium assays in empty vector control cells",[4],no meaningful changes
